Patent US11497734B2, “Dual inhibitors of TIM-3 and PD-1 pathways” (Aurigene Discovery Technologies Limited, priority 2017, dated 2022)

Key:
PD-L1 = target: T1, PD-L1 (Mus musculus, UniProt Q9EP73); test: Rescue of mouse splenocyte proliferation in the presence of recombinant PD-L1 (CFSE proliferation assay); assay type: cell-based; details: 100 nM compound; anti-CD3/CD28 stimulated mouse splenocytes + PD-L1; 72 h; read-out: PDL1 (rescue of proliferation @ 100 nM)
T1 construct: Fc (Fc chimera); purchased R&D Systems 1019-B7-100
Experimental: Example 1: Rescue of Mouse Splenocyte Proliferation in the Presence of Recombinant PD-L1/PD-L2
Recombinant mouse PD-L1 (rm-PDL-1, cat no: 1019-B7-100; R&D Systems) were used as the source of PD-L1.
Mouse splenocytes harvested from 6-8 weeks old C57 BL6 mice; RPMI 1640 (GIBCO, Cat #11875); DMEM with high glucose (GIBCO, Cat #D6429); Fetal Bovine Serum [Hyclone, Cat #SH30071.03]; Penicillin (10000 unit/mL)-Streptomycin (10,000 μg/mL) Liquid (GIBCO, Cat #15140-122); MEM Sodium Pyruvate solution 100 mM (100×)), Liquid (GIBCO, Cat #11360); Nonessential amino acid (GIBCO, Cat #11140); L-Glutamine (GIBCO, Cat #25030); Anti-CD3 antibody (eBiosciences—16-0032); Anti-CD28 antibody (eBiosciences—16-0281); ACK lysis buffer (1 mL) (GIBCO, Cat #-A10492); Histopaque (density—1.083 gm/mL) (SIGMA 10831); Trypan blue solution (SIGMA-T8154); 2 mL Norm Ject Luer Lock syringe-(Sigma 2014-12); 40 μm nylon cell strainer (BD FALCON 35230); Hemacytometer (Bright line-SIGMA Z359629); FACS Buffer (PBS/0.1% BSA): Phosphate Buffered Saline (PBS) pH 7.2 (HiMedia TS1006) with 0.1% Bovine Serum Albumin (BSA) (SIGMA A7050) and sodium azide (SIGMA 08591); 5 mM stock solution of CFSE: CFSE stock solution was prepared by diluting lyophilized CFSE with 180 μL of Dimethyl sulfoxide (DMSO C2H6SO, SIGMA-D-5879) and aliquoted in to tubes for further use. Working concentrations were titrated from 10 μM to 1 μM. (eBioscience-650850-85); 0.05% Trypsin and 0.02% EDTA (SIGMA 59417C); 96-well format ELISA plates (Corning CLS3390); BD FACS caliber (E6016); Recombinant mouse B7-H1/PDL1 Fc Chimera, (rm-PD-L1 cat no: 1019-B7-100).
Splenocytes harvested in a 50 mL falcon tube by mashing mouse spleen in a 40 μm cell strainer were further treated with 1 mL ACK lysis buffer for 5 min at room temperature. After washing with 9 mL of RPMI complete media, cells were re-suspended in 3 mL of 1×PBS in a 15 mL tube. 3 mL of Histopaque was added carefully to the bottom of the tube without disturbing overlaying splenocyte suspension. After centrifuging at 800×g for 20 min at room temperature, the opaque layer of splenocytes was collected carefully without disturbing/mixing the layers. Splenocytes were washed twice with cold 1×PBS followed by total cell counting using Trypan Blue exclusion method and used further for cell based assays.
Splenocytes were cultured in RPMI complete media (RPMI+10% fetal bovine serum+1 mM sodium pyruvate+10,000 units/mL penicillin and 10,000 μg/mL streptomycin) and maintained in a CO2 incubator with 5% CO2 at 37° C.
CFSE Proliferation Assay: CFSE is a dye that passively diffuses into cells and hinds to intracellular proteins. 1×10^6 cells/mL of harvested splenocytes were treated with 5 μM of CFSE in pre-warmed 1×PBS/0.1% BSA solution for 10 min at 37° C. Excess CFSE was quenched using 5 volumes of ice-cold culture media to the cells and incubated on ice for 5 min. CFSE labeled splenocytes were further given three washes with ice cold complete RPMI media. CFSE labeled 1×10^5 splenocytes added to wells containing either MDA-MB231 cells (1×10^5 cells cultured in high glucose DMEM medium) or recombinant human PDL-1 (100 ng/mL) and test compounds. Splenocytes were stimulated with anti-mouse CD3 and anti-mouse CD28 antibody (1 μg/mL each), and the culture was further incubated for 72 h at 37° C. with 5% CO2. Cells were harvested and washed thrice with ice cold FACS buffer and % proliferation was analysed by flow cytometry with 488 nm excitation and 521 nm emission filters. Data Compilation, Processing and Inference: […]

recombinant human TIM-3 = test: Human PBMC IFN-γ release assay in the presence of recombinant TIM-3; assay type: cell-based; details: 100 nM compound, plate-coated TIM-3 + anti-CD3, anti-CD28, 72 h
Experimental: Vehicle: Milli Q water; RPMI 1640 (GIBCO, Cat #11875); Fetal Bovine Serum [Hyclone, Cat #SH30071.03]; Penicillin (10000 unit/ml)-Streptomycin (10,000 μg/ml) liquid (GIBCO, Cat #15140-122); MEM Sodium Pyruvate solution 100 mM (100×). Liquid (GIBCO, Cat #11360); Nonessential amino acid (GIBCO, Cat #11140); L-Glutamine (GIBCO, Cat #25030); Recombinant human TIM-3 (rhGi24 TIM-3/B7-H5 Fc chimera (R&D systems, cat no: 7126-B7); Anti-h/m Gi24/TIM-3/B7-H5 purified mouse monoclonal IgG2B (R&D systems, cat no: MAB7126); Mouse IgG2B isotype control (R&D Systems cat no: MAB 004); Anti human-CD3 antibody (eBiosciences—16-0039); Anti human-CD28 antibody (eBiosciences—16-0289); Histopaque (density-1.077 gm/ml) (SIGMA 1077); Trypan Blue solution (SIGMA-T8154); Hemacytometer (Bright line-SIGMA Z359629); FACS Buffer containing Phosphate Buffered Saline (PBS) pH 7.2; (HiMedia TS1006) with 0.1% Bovine Serum Albumin (BSA) (SIGMA A7050) and sodium azide (SIGMA 08591); 96-well format ELISA plates (Corning 3599); 96-well format ELISA plates (Corning 3361); BD FACS caliber (E6016); Centrifuge (Eppendorf 5810 R); Human IFN-'γ Duo set ELISA kit (R&D Systems; cat no: DY-285).
Human PBMC IFN-γ Release Assay
96-well cell culture plates were pre-coated with recombinant human TIM-3 (2.5 μg/ml) and anti-human CD3 (2.5 μg/ml), and stored at 4° C. overnight. Anti-human TIM-3 and isotype control antibodies were either coated along with the TIM-3 or incubated for 30 min next day before addition of cells. On the next day, plates were washed with 1× PBS and then incubated with test compounds for 30 min. Isolated PBMC (0.1×10^6 cells/well) and anti-human CD28 antibodies (1 μg/ml) were added to the wells. The culture was further incubated for 72 h at 37° C. with 5% CO2. After 72 h of incubation the cell culture supernatants were collected after brief centrifugation at 200 g×5 min at 4° C. and processed for human IFN-γ measurement by ELISA following manufacturer's protocol (R&D Systems; DY-285).
In brief, 96-well ELISA plates were coated with 100 μl/well of capture antibody in coating buffer and incubated overnight at 4° C. Plates were washed five times with wash buffer and further blocked with 200 μl of 1× assay diluents for 1 hr at RT. Following wash step, 100 μl of cell culture supernatants were added to wells and further incubated for 2 hr at RT. Appropriate standards were also included. After wash step, plate was incubated for one hour with 100 μl/well of detection antibody. The wash step was repeated and the plate was incubated for 30 min with 100 μl/well of Avidin-HRP. The plate was washed four times with wash buffer and subsequently incubated for 15 min with 100 μl/well of substrate solution. 50 μl of stop solution was added to each well and the plate was read at 450 nm using Gen5 ver 2.05. Delta OD values were used for calculating the concentrations. The absorbance values were plotted against the standards and the concentration of IFN-γ was determined using GraphPad Prism software. Each experimental condition was carried out in triplicates.
The percent rescue of IFN-γ release of the selected compounds of present invention are set forth below wherein “A” refers to compounds having more than 70% rescue of IFN-γ release, “B” refers to compounds having rescue of IFN-γ release ranges from 50% to 69.9% and “C” refers to compounds having less than 50% rescue of IFN-γ release.

T1 sequence (Q9EP73 19-238 limits assumed): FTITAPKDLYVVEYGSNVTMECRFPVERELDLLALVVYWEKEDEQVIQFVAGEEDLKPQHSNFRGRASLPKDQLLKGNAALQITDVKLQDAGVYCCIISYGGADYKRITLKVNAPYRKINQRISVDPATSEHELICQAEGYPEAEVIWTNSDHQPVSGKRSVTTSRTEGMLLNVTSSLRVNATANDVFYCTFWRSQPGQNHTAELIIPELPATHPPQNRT

Structure (SMILES) | activity at 0.1 µM (PD-L1) [%] | TIM-3 (rescue of IFN γ release @ 100 nM) (recombinant human TIM-3)
CC(O)[C@H](NC(=O)N[C@@H](CC(N)=O)c1nc([C@@H](N)CCC(=O)O)no1)C(=O)O (some centres unmarked) [Compound 1] | 68 | B (rescue of IFN-γ release ranges from 50% to 69.9%)
CCC(C)[C@H](NC(=O)N[C@@H](CC(N)=O)c1nc([C@@H](N)CO)no1)C(=O)O (some centres unmarked) [Compound 2] | 73 | A (more than 70% rescue of IFN-γ release)
CC(O)[C@H](NC(=O)N[C@@H](CC(=O)O)c1nc([C@@H](N)CO)no1)C(=O)O (some centres unmarked) [Compound 4] | 52 | C (less than 50% rescue of IFN-γ release)
CC(O)[C@H](NC(=O)N[C@@H](CCC(=O)O)c1nc([C@@H](N)CO)no1)C(=O)O (some centres unmarked) [Compound 5] | 88 | A (more than 70% rescue of IFN-γ release)
CC(O)[C@H](NC(=O)N[C@@H](CCC(=O)O)c1nc([C@@H](N)CCCCN)no1)C(=O)O (some centres unmarked) [Compound 6] | 52 | A (more than 70% rescue of IFN-γ release)
CC(C)[C@H](NC(=O)N[C@@H](CC(N)=O)c1nc([C@@H](N)CCCCN)no1)C(=O)O [Compound 9] | 138 | C (less than 50% rescue of IFN-γ release)
NCCCC[C@H](N)c1noc([C@H](CCC(=O)O)NC(=O)N[C@@H](CO)C(=O)O)n1 [Compound 11] | 60 | C (less than 50% rescue of IFN-γ release)
CC(O)[C@H](NC(=O)N[C@@H](CCCCN)c1nc([C@@H](N)CO)no1)C(=O)O (some centres unmarked) [Compound 13] | 66 | C (less than 50% rescue of IFN-γ release)
COC(C)[C@H](NC(=O)N[C@@H](CC(N)=O)c1nc([C@@H](N)CO)no1)C(=O)O (some centres unmarked) [Compound 14] | 84 | C (less than 50% rescue of IFN-γ release)
CCC(C)[C@H](NC(=O)N[C@H](C(=O)O)C(C)O)c1nc([C@@H](N)CO)no1 (some centres unmarked) [Compound 15] | 50 | C (less than 50% rescue of IFN-γ release)
CC(O)[C@H](NC(=O)N[C@@H](CC(N)=O)c1nc(C2COCCN2)no1)C(=O)O (some centres unmarked) [Compound 16] | 92 | B (rescue of IFN-γ release ranges from 50% to 69.9%)
CC(O)[C@H](NC(=O)N[C@@H](CCC(=O)O)c1nc(C2COCCN2)no1)C(=O)O (some centres unmarked) [Compound 17] | 57 | C (less than 50% rescue of IFN-γ release)

Second part, led by results:

activity at 0.1 µM (PD-L1) [%] | Structure (SMILES) | TIM-3 (rescue of IFN γ release @ 100 nM) (recombinant human TIM-3)
62 | CC(O)[C@H](NC(=O)N[C@@H](CC(N)=O)c1nc([C@@H](N)Cc2ccccc2)no1)C(=O)O (some centres unmarked) [Compound 3] | A (more than 70% rescue of IFN-γ release)
74 | CC(O)[C@H](NC(=O)N[C@H](CC(N)=O)c1nc([C@@H](N)CO)no1)C(=O)O (some centres unmarked) [Compound 7] | A (more than 70% rescue of IFN-γ release)
68 | CC(O)[C@@H](N)c1noc([C@@H](CC(N)=O)NC(=O)N[C@H](CO)C(=O)O)n1 (some centres unmarked) [Compound 8] | B (rescue of IFN-γ release ranges from 50% to 69.9%)
53 | CSCC[C@H](N)c1noc([C@H](CC(N)=O)NC(=O)N[C@@H](CC(=O)O)C(=O)O)n1 [Compound 10] | C (less than 50% rescue of IFN-γ release)
41 | NCCCC[C@H](N)c1noc([C@H](CC(N)=O)NC(=O)N[C@@H](CO)C(=O)O)n1 [Compound 12] | A (more than 70% rescue of IFN-γ release)
57 | N[C@@H](Cc1ccc(O)cc1)c1noc([C@@H]2CC(O)CN2C(=O)N[C@@H](Cc2ccc(O)cc2)C(=O)O)n1 (some centres unmarked) [Compound 18] | C (less than 50% rescue of IFN-γ release)
54 | N[C@@H](Cc1ccc(O)cc1)c1noc([C@@H]2CCCCN2C(=O)N[C@@H](Cc2ccc(O)cc2)C(=O)O)n1 [Compound 19] | C (less than 50% rescue of IFN-γ release)
